Columns and labels:
[1] = Binding affinity to CBR (unknown origin); design: species or system Homo sapiens
Translocator protein [2] = biological target: T1, Translocator protein (Homo sapiens, UniProt P30536); test: Inhibition of TSPO (unknown origin) in mouse MA-10 cells assessed as increase in steroid steroidogenesis
Translocator protein [3] = biological target: T2, Translocator protein (Rattus norvegicus, UniProt P16257); test: Displacement of [3H]-PK11195 from TSPO receptor in rat heart microsomes incubated for 15 mins by scintillation method; design: species or system Microsome
[4] = Lipophilicity, logD of the compound in 1-octanol and phosphate buffer in pH 7.4 incubated for 3 mins; assay type: physicochemical; details: 1-octanol/phosphate buffer
Translocator protein [5] = biological target: T2, Translocator protein; test: Displacement of [3H]-Ro54864 from TSPO receptor in rat heart microsomes incubated for 45 mins by scintillation method; design: species or system Microsome
[6] = Displacement of [3H]-Ro51788 from CBR receptor in rat brain microsomes incubated for 60 mins by scintillation method; design: species or system Microsome
[7] = Displacement of [3H]flunitrazepam from CBR receptor in rat brain cerebral cortex by liquid scintillation spectrometer method; assay type: tissue-based
Translocator protein [8] = biological target: T1, Translocator protein; test: Inhibition of TSPO receptor (unknown origin)
Translocator protein [9] = biological target: T1, Translocator protein; test: Binding affinity to TSPO (unknown origin) relative to control; details: tested as the 11C-labelled form
Translocator protein [10] = biological target: T2, Translocator protein; test: Displacement of [3H]-flunitrazepam from TSPO receptor in Wistar rat brain without cerebellum incubated for 90 mins by liquid scintillation counter analysis; assay type: tissue-based
[11] = Selectivity ratio of Ki for CBR (unknown origin) to Ki for TSPO receptor in Wistar rat brain
Translocator protein [12] = biological target: T2, Translocator protein; test: Binding affinity to TSPO in Sprague-Dawley rat brain; assay type: tissue-based
[13] = Lipophilicity, logD of the compound; assay type: physicochemical; details: octanol/water
Translocator protein [14] = biological target: T2, Translocator protein; test: Displacement of [3H]-PK11195 from TSPO receptor in Sprague-Dawley rat brain incubated for 30 mins by […] analysis; assay type: tissue-based
[15] = Lipophilicity, logD of the compound in 1-octanol and phosphate buffer in pH 7.4 incubated for 3 mins by shake flask method; assay type: physicochemical; details: 1-octanol/phosphate buffer
[16] = Stability of the compound assessed as intact compound level measured after 24 hrs by iTLC-SG analysis; assay type: physicochemical; details: read-out: Stability
[17] = Stability of the compound in human serum assessed as intact compound level measured after 24 hrs by iTLC-SG analysis; assay type: ADME, cell-free; details: read-out: Stability
Translocator protein [18] = biological target: T1, Translocator protein; test: Displacement of [3H]-PK11195 from TSPO receptor in human Leucocyte incubated for 30 mins by beta-counter analysis; assay type: cell-based

T2 sequence (P16257 whole entry, looked up): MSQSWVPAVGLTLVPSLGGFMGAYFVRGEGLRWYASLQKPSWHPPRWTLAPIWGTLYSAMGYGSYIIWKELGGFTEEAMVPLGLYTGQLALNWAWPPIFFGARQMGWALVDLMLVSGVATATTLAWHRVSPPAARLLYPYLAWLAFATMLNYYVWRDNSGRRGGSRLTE
T1 sequence (P30536 whole entry): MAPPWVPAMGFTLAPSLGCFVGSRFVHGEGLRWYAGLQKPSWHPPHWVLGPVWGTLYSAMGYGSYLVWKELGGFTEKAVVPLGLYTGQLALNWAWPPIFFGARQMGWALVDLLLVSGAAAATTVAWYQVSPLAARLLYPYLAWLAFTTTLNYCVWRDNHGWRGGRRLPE

Compound `CCC(C)N(C)C(=O)c1cc2ccccc2c(-c2ccccc2Cl)n1` (configuration not stated) [PK-11195] has a Ki [1] greater than 100000 nM.
In the case of `CCCN(CCC)C(=O)Cc1c(-c2ccc(OCC(=O)O)cc2)nc2c(Cl)cc(Cl)cn12`, the EC50 (Translocator protein [2]) is reported as 39000 nM.
In the case of `CCN(CC)C(=O)Cn1c(=O)n2nc(-c3ccccc3)nc2c2ccccc21`, the IC50 (Translocator protein [3]) is reported as 1700 nM.
`CC(=O)N(Cc1ccccc1OC[18F])c1cnccc1Oc1ccccc1` showed a logD at 0.05 h [4] of 2.85.
`CCN(CC)C(=O)Cn1c(=O)n2c(C)c(-c3ccccc3)nc2c2ccccc21` showed an IC50 (Translocator protein [3]) of 29 nM, an IC50 (Translocator protein [5]) of 9 nM and an IC50 [6] greater than 10000 nM.
Compound `CCN(CC)C(=O)Cn1c(=O)n2cc(-c3ccccc3)nc2c2ccccc21` has an IC50 (Translocator protein [3]) of 400 nM, an IC50 (Translocator protein [5]) of 80 nM and an IC50 [6] greater than 10000 nM.
Compound `CCCN(CCC)C(=O)Cc1c(-c2ccc(Cl)cc2)nc2c(NCC(=O)O)cccn12` has an EC50 (Translocator protein [2]) of 21200 nM.
In the case of `CCCN(CCC)C(=O)Cc1c(-c2ccc(OC)cc2)nc2c(Cl)cc(Cl)cn12`, the EC50 (Translocator protein [2]) is reported as 571 nM.
Work on `COc1ccc(OC)c(CN(C(C)=O)c2cc(F)ccc2Oc2ccccc2)c1` yielded an IC50 [7] greater than 1000 nM, an IC50 (Translocator protein [8]) of 0.28 nM and an Activity (Translocator protein [9]) of 80%.
Work on `Oc1nc2ccccc2c2nc(-c3ccccc3)nn12` yielded an IC50 (Translocator protein [3]) of 9800 nM and an IC50 (Translocator protein [5]) of 15 nM.
Compound `CCN(CC)C(=O)Cn1c(=O)n2cc(-c3ccc(OC)c(OC)c3)nc2c2ccccc21` has an IC50 (Translocator protein [3]) of 150 nM, an IC50 (Translocator protein [5]) of 500 nM and an IC50 [6] greater than 10000 nM.
Compound `CCCN(CCC)C(=O)Cc1c(-c2ccc(OC)cc2)nc2ccc(Cl)cn12` has a Ki [1] of 105 nM, a Ki (Translocator protein [10]) of 0.5 nM and an EC50 (Translocator protein [2]) of 15900 nM. For the same compound, the Ratio Ki [11] was 210.
Work on `CN(C(=O)Cn1c(=O)oc2ccc(-c3cccc([N+](=O)[O-])c3)cc21)c1ccccc1O[11CH3]` yielded a Ki (Translocator protein [12]) of 4.9 nM and a logD [13] of 2.08.
With `CCCN(CCC)C(=O)Cc1c(-c2ccc(Cl)cc2)nc2c(Cl)cc(Cl)cn12` [ALPDEM] the EC50 (Translocator protein [2]) was 337 nM.
For `CC(=O)N(C)c1ccccc1Oc1ccccc1`, the IC50 (Translocator protein [8]) was 6.7 nM.
`CCCN(CCC)C(=O)Cc1c(-c2ccc(Cl)cc2)nc2ccc(Cl)cn12` [ALPIDEM] gave a Ki [1] of 1 nM, a Ki (Translocator protein [10]) of 7.9 nM and a Ratio Ki [11] of 3.29.
With `CCCN(CCC)C(=O)Cc1c(-c2ccc(O)cc2)nc2ccc(Cl)cn12` the Ki [1] was 1.05 nM, the Ki (Translocator protein [10]) was 22.2 nM and the EC50 (Translocator protein [2]) was 6990 nM. It also gave a Ratio Ki [11] of 21.1.
For `CC(=O)N(Cc1ccccc1OC(C)C)c1ccc(Cl)cc1Oc1ccccc1`, the IC50 [7] was greater than 1000 nM.
In the case of `CCCN(CCC)C(=O)Cn1c(=O)n2cc(-c3ccccc3)nc2c2ccccc21`, the IC50 (Translocator protein [3]) is reported as 11 nM, the IC50 (Translocator protein [5]) is reported as 12 nM and the IC50 [6] is reported as greater than 10000 nM.
With `CN(C(=O)Cn1c(=O)oc2ccc(-c3ccc(OCC[18F])cc3)cc21)c1ccccc1` the Ki (Translocator protein [14]) was 6.6 nM and the logD at 0.05 h [15] was 3.43.
In the case of `CN1C(=O)CN=C(c2ccccc2F)c2cc([N+](=O)[O-])ccc21` [FLUNITRAZEPAM], the Ki [1] is reported as 5.11 nM.
In the case of `COC(=O)C(Cc1c[nH]c2ccccc12)NC(=O)Cn1c(=O)oc2ccc(Br)cc21` (configuration not stated), the remaining at 24 h [16] is reported as greater than 94% and the remaining at 24 h [17] is reported as greater than 91%.
`CC(=O)N(Cc1ccccc1O[11CH3])c1cnccc1Oc1ccccc1` gave a logD at 0.05 h [4] of 2.82 and an IC50 (Translocator protein [18]) of 8.07 nM.
Work on `COc1ccc(-c2ccc3oc(=O)n(CC(=O)N(C)c4ccccc4)c3c2)cc1` yielded a logD [13] of 3.5.

— ChEMBL document CHEMBL5104089, “An update into the medicinal chemistry of translocator protein (TSPO) ligands” (Eur J Med Chem, 2021)
